PMC10269487, “Plasmodium Parasite Malate-Quinone Oxidoreductase Functionally Complements a Yeast Deletion Mutant of Mitochondrial Malate Dehydrogenase” (Microbiology Spectrum, 2023)

Legend:
[1] = target: T1, malate-quinone oxidoreductase (PfMQO) (Plasmodium falciparum, UniProt C6KT09); assay: malate:dUQ/DCIP reductase activity in mitochondrial fraction of PfMQO-expressing yeast, with ΔMdh1 as negative control; format: biochemical
T1 construct: gene PF3D7_0616800; native full-length PfMQO from codon-optimized cDNA, expressed in ΔMdh1 yeast mitochondria
T1 sequence (C6KT09 1-521): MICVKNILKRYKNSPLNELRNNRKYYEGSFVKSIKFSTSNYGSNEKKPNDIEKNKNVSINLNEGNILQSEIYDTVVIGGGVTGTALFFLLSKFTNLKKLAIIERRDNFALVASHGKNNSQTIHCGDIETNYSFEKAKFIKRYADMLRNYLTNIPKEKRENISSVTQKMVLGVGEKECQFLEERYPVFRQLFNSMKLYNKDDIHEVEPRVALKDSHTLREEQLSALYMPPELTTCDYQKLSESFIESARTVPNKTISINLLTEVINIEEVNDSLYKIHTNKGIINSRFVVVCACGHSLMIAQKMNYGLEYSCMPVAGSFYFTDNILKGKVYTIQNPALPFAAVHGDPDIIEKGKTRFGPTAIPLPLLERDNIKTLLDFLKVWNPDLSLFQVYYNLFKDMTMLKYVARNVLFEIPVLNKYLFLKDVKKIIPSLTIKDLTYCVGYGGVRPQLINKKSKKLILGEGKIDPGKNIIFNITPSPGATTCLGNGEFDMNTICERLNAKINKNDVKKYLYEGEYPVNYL

[2] = target: T2, yeast succinate dehydrogenase (Saccharomyces cerevisiae, UniProt P21801+P33421+P37298+Q00711); assay: inhibition of yeast succinate dehydrogenase activity (Fig. S2); format: cell-based
T2 construct: gene SDH1
T2 sequence (Q00711 29-640): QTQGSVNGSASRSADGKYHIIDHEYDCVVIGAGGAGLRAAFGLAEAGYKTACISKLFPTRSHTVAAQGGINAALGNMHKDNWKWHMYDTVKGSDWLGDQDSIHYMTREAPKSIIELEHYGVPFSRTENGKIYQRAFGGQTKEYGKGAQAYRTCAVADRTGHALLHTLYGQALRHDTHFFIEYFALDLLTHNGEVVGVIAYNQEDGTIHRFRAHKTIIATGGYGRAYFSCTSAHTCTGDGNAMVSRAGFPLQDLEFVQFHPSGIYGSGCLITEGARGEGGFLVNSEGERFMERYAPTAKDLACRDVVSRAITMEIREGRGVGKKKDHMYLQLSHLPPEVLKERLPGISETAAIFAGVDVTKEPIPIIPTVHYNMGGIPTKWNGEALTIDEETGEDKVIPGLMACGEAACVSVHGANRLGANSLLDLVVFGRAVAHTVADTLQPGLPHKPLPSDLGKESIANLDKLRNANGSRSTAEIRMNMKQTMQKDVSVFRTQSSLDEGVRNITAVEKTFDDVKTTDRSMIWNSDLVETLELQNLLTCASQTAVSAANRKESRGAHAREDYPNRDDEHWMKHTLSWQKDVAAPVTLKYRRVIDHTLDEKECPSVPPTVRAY
T2 sequence (P21801 21-266): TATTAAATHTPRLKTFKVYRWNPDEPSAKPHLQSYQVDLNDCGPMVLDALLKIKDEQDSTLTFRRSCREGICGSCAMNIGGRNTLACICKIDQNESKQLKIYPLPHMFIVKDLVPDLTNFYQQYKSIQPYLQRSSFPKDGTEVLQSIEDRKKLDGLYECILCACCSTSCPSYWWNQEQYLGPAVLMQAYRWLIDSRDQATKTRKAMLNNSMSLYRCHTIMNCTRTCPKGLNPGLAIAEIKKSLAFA
T2 sequence (P33421 51-198): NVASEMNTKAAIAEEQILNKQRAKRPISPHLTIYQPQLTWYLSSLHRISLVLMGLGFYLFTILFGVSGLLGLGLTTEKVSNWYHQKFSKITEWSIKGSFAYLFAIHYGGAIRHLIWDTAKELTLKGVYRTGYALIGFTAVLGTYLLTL
T2 sequence (P37298 32-181): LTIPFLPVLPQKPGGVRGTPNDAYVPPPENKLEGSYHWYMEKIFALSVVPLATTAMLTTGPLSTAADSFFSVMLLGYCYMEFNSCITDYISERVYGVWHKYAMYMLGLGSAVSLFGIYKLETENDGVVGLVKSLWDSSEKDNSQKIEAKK

CC(C)=CCC/C(C)=C/CC/C(C)=C/Cc1c(O)c2ccccc2oc1=O [ferulenol]
malate:dUQ/DCIP reductase activity in mitochondrial fraction of PfMQO-expressing [1]: almost completely suppressed by 1
IC50 [2]: ~0.1 µM
